Earlier results in patent US11045513B2, “Association of dry extracts of Vicia faba, Uncaria rhyncophylla and liquorice root together with coenzyme Q10 for use as coadjuvant, for improving the quality of life in subjects suffering from movement disorders” (CRISTALFARMA S.R.L., priority 2018, dated 2021).

Target: dopamine D3 receptor (DRD3) (Homo sapiens, UniProt P35462)
Sequence (P35462 whole entry): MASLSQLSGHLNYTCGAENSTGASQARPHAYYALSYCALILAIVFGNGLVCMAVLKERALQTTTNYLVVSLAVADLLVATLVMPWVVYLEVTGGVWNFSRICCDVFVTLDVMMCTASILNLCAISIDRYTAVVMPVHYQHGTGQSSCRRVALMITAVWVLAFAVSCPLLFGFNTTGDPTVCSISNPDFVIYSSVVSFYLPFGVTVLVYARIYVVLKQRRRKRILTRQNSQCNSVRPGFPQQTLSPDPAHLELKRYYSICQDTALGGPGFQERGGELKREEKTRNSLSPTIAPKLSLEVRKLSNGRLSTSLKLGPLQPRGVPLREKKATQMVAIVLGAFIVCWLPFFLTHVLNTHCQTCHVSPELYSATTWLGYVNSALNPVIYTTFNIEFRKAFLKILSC

Structure (SMILES): CC1(C)[C@@H](O)CC[C@]2(C)[C@H]3C(=O)C=C4[C@@H]5C[C@@](C)(C(=O)O)CC[C@]5(C)CC[C@@]4(C)[C@]3(C)CC[C@@H]12 [glycyrrhetinic acid]
- binding affinity for the dopamine D3 receptor (DRD3): strong binding affinity
